Earlier results as cited in patent publication US11819781B2, “Device for solid phase extraction and method for use thereof” (Waters Technologies Corporation, priority 2014, dated 2023).

Conditions: analyte characteristics; for Log P: octanol:water

Structure (SMILES) | pKa | Log P
CN(C)CCC=C1c2ccccc2CCc2ccccc21 [Amitriptyline] | 9.7 | 4.8
C[C@H]1C[C@H]2[C@@H]3CCC4=CC(=O)C=C[C@]4(C)[C@@]3(F)[C@@H](O)C[C@]2(C)[C@@]1(O)C(=O)CO [Betamethasone] | – | 1.1
CNCCCC1c2ccccc2C=Cc2ccccc21 [Protriptyline] | – | 4.4
